Measured values published in patent US20240173289A1, “USE OF OXYMETHYL-MODIFIED DERIVATIVE OF QUERCETIN IN PREPARATION OF DRUG FOR INHIBITING TUMOR CELL PROLIFERATION” (ZHEJIANG UNIVERSITY, priority 2021, published 2024).

Key:
Assay in all cases: apoptosis, AnnexinV-FITC/PI flow cytometry
Format in all cases: cell-based
HepG2 = conditions: 24 h, dosage not given
Source text: (§1) The tumor cells growing in the logarithmic phase were digested with trypsin, collected by centrifugation to prepare a suspension, the cells were counted and adjusted to a certain concentration (6×10^5 cells per mL for AGS, T47D, Caco2, BCPAP, GES, HUVEC; 5×10^5 cells per mL for HepG2, MDA-MB-231, BGC-823, A549, PC3, L02; 3×10^5 cells per mL for 143B, HOS, U2, SGC-7901, Hela, BV-2; 1.8×10^6 cells per mL for WI-38), and the cells at a certain concentration were transferred to a 6-well plate at a concentration of 1 mL per well. The cells were cultured in a cell culture incubator for 12 h to allow the cells to adhere to the wall. The corresponding dosages of a quercetin 3,3′-dimethyl ether solution were added (the dosage of osteosarcoma cells was 143B: 4 mg/L, HOS: 4 mg/L, U2: 10 mg/L; the dosage of breast cancer cells was MDA-MB-231: 2 mg/L, T47D: 3 mg/L; the dosage of gastric cancer cells was SGC7901: 6 mg/L, BGC823: 5 mg/L, AGS: 3 mg/L; the dosage of cervical cancer Hela cells was 2 mg/L; the dosage of lung cancer cell A549 was 3 mg/L; the dosage of intestinal cancer cells Caco2 was 4 mg/L; the dosage of mouse glioma BV2 was 4 mg/L; the dosage of human prostate cancer cells PC3 was 6 mg/L; and the dosage of human thyroid cancer cells BCPAP was 2 mg/L). While DMSO was used as a solvent control, and then incubated for 24 h. After acting for 24 h, the cells were collected by centrifugation at 300 g, 4° C. for 5 min, a supernatant was discarded, and the cells were washed twice with pre-cooled PBS, each time with centrifugation at 300 g, 4° C. for 5 min. (1˜5)×10^5 cells were collected and resuspended in […] 1× BindingBuffer. 5 μl of AnnexinV-FITC and 5 μl of PI were added, and mixed well gently. The cells were reacted at room temperature for 10 min in the dark. 400 μl of 1× Binding Buffer was added, mixed well, and the samples were detected by flow cytometry within 1 h. The analysis was conducted according to a standard detection procedure of flow cytometry, at an excitation wavelength of 488 nm, and 20,000 cells were counted, and obtained results were analyzed with cell cycle fitting software ModFit.

mouse glioma BV2 = conditions: BV-2; 4 mg/L; 24 h
Source text: as §1

[1] = system: breast cancer cells MDA-MB-231; conditions: 2 mg/L, 24 h
Source text: as §1

breast cancer cells T47D = conditions: 3 mg/L, 24 h
Source text: as §1

osteosarcoma cells HOS = conditions: 4 mg/L, 24 h
Source text: as §1

[2] = system: human prostate cancer cells PC3; conditions: 6 mg/L, 24 h
Source text: as §1

osteosarcoma cells 143B = conditions: 4 mg/L, 24 h
Source text: as §1

[3] = system: intestinal cancer cells Caco2; conditions: 4 mg/L, 24 h
Source text: as §1

gastric cancer cells AGS = conditions: 3 mg/L, 24 h
Source text: as §1

[4] = system: cervical cancer Hela cells; conditions: 2 mg/L, 24 h
Source text: as §1

lung cancer cell A549 = conditions: 3 mg/L, 24 h
Source text: as §1

[5] = system: gastric cancer cells BGC-823; conditions: 5 mg/L, 24 h
Source text: as §1

COc1cc(-c2oc3cc(O)cc(O)c3c(=O)c2OC)ccc1O [Quercetin 3,3′-dimethyl ether, quercetin 3,3′-dimethyl ether]
Treatment apoptosis ratio % (HepG2): 32.36 ± 5.26 % | Treatment apoptosis ratio % (mouse glioma BV2): 18.65 ± 0.39 % | Treatment apoptosis ratio % [1]: 29.85 ± 4.49 % | Treatment apoptosis ratio % (breast cancer cells T47D): 16.98 ± 1.37 % | Treatment apoptosis ratio % (osteosarcoma cells HOS): 23.09 ± 4.36 % | Treatment apoptosis ratio % [2]: 21.13 ± 5.11 % | Treatment apoptosis ratio % (osteosarcoma cells 143B): 24.72 ± 2.82 % | Treatment apoptosis ratio % [3]: 22.81 ± 3.72 *^ % | Treatment apoptosis ratio % (gastric cancer cells AGS): 29.47 ± 2.25 % | Treatment apoptosis ratio % [4]: 20.05 ± 4.31 % | Treatment apoptosis ratio % (lung cancer cell A549): 20.28 ± 3.23 % | Treatment apoptosis ratio % [5]: 26.68 ± 3.45 %
